# According to ChEMBL document CHEMBL2401712, “Fused thiazolyl alkynes as potent mGlu5 receptor positive allosteric modulators” (Bioorg Med Chem Lett, 2013):
# Tests used:
# Format in all cases: cell-based
# [1] = biological target: T1, Metabotropic glutamate receptor 5 (Homo sapiens, UniProt P41594); assay: Negative allosteric modulation of human mGlu5 receptor expressed in HEK293 cells assessed as inhibition of L-glutamate-induced activity after 1 hr by FLIPR assay relative to control; set-up: concentration or dose not given beside the values; conditions: concentration not given here
# Target sequence in this assay (P41594 21-1212 limits assumed): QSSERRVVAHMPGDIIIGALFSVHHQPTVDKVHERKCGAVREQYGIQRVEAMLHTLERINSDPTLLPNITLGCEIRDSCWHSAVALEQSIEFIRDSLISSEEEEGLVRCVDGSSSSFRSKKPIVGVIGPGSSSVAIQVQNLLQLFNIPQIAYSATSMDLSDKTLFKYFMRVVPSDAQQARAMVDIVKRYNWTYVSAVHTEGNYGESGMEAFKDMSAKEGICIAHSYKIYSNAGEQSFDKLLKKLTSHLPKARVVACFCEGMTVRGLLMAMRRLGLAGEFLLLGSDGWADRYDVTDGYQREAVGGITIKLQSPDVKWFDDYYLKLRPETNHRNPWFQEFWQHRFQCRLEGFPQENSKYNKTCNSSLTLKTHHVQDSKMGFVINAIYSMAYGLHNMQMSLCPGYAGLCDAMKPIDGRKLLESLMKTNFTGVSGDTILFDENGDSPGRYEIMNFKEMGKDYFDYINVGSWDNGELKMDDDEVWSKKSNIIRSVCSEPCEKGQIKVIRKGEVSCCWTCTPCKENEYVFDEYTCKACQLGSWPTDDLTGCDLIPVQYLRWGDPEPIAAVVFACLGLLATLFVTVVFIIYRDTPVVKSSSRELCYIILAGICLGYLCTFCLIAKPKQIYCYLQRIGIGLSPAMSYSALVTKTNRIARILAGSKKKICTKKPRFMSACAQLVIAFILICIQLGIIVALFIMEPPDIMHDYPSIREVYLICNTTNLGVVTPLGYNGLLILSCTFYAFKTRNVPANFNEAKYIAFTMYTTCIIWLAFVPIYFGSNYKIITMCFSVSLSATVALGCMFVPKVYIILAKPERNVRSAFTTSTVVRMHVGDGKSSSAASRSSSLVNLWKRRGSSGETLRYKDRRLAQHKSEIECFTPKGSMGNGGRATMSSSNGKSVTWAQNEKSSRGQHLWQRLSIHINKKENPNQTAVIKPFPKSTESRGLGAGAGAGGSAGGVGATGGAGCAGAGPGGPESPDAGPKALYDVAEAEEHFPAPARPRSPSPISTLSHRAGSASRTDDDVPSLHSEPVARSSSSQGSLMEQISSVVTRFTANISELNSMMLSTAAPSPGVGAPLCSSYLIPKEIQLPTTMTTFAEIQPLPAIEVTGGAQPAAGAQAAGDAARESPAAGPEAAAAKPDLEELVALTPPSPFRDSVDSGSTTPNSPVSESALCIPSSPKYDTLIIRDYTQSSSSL
# [2] = biological target: T1, Metabotropic glutamate receptor 5; assay: Negative allosteric modulation of human mGlu5 receptor expressed in HEK293 cells assessed as inhibition of L-glutamate-induced activity after 1 hr by FLIPR assay
# Target sequence in this assay (P41594 whole entry): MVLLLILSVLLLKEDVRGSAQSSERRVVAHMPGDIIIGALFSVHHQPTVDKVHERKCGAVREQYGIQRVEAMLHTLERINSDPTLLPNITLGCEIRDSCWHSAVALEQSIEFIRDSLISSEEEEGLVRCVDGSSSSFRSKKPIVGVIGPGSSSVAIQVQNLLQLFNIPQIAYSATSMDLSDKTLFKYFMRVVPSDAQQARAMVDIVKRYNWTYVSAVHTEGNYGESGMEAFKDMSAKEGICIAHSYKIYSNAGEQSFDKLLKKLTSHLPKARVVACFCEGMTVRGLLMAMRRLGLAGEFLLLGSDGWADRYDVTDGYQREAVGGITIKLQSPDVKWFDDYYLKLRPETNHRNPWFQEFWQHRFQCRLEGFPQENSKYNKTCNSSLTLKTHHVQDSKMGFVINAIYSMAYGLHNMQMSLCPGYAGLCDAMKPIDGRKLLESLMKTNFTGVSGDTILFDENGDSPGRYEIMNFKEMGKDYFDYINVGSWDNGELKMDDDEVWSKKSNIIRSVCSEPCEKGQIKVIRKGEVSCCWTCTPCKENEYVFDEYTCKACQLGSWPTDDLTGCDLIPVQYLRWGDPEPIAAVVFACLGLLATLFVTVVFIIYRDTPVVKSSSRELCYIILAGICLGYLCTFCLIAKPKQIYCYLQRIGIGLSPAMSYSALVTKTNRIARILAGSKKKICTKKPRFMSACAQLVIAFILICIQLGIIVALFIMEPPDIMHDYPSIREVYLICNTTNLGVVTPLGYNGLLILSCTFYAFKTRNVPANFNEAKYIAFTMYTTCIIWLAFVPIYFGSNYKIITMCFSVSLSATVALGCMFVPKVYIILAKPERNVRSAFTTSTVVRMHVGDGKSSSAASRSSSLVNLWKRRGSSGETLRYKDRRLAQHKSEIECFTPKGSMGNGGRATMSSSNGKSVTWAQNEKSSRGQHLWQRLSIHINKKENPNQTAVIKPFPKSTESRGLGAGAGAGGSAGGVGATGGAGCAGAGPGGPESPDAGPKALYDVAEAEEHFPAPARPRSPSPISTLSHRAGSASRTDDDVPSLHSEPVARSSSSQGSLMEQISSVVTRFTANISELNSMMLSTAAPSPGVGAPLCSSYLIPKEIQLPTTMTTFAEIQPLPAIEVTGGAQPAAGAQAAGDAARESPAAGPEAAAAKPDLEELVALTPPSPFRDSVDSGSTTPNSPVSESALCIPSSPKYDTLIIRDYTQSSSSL
# [3] = biological target: T1, Metabotropic glutamate receptor 5; assay: Positive allosteric modulation of human mGlu5 receptor expressed in HEK293 cells assessed as potentiation of L-glutamate-induced activity after 1 hr by FLIPR assay relative to control
# Target sequence in this assay (P41594 21-1212 limits assumed): as the sequence (P41594 21-1212 limits assumed) above
# [4] = biological target: T1, Metabotropic glutamate receptor 5; assay: Positive allosteric modulation of human mGlu5 receptor expressed in HEK293 cells assessed as potentiation of L-glutamate-induced activity after 1 hr by FLIPR assay
# Target sequence in this assay (P41594 whole entry): as the sequence (P41594 whole entry) above
inhibition [1] [%],IC50 [2] [nM],Emax [3] [%],EC50 [4] [nM],Compound
28,> 10000,32,110,CCCCN1CCc2nc(C#Cc3ccccc3)sc2C1
91,400,-47,> 10000,Fc1cccc(C#Cc2nc3c(s2)CN(C2CCOC2)CC3)c1 (configuration not stated)
-9,> 10000,94,26,O=C(N1CCc2nc(C#Cc3ccccc3)sc2C1)N1CC(F)(F)C1
–,> 10000,180,100,CC(C)CCN1CCc2nc(C#Cc3ccccc3)sc2C1
–,> 10000,50,> 10000,Cc1cccc(C#Cc2nc3c(s2)C(=O)NCC3)c1
16,> 10000,150,71,N#Cc1cccc(C(=O)N2CCc3nc(C#Cc4ccccc4)sc3C2)c1
–,> 10000,153,167,O=C(C1CCCCC1)N1CCc2nc(C#Cc3ccccc3)sc2C1
42,> 10000,280,19,O=C(C1CCCC1)N1CCc2nc(C#Cc3ccccc3)sc2C1
79,38,-17,> 10000,CCC(=O)N1CCc2nc(C#Cc3ccccc3)sc2C1
45,> 10000,72,2.5,O=C(C1CC(F)(F)C1)N1CCc2nc(C#Cc3cccc(F)c3)sc2C1
19,> 10000,120,160,Cc1cccc(C(=O)N2CCc3nc(C#Cc4ccccc4)sc3C2)n1
94,650,-48,> 10000,CC(C)CN1CCc2nc(C#Cc3ccccc3)sc2C1
75,11,-4,> 10000,CC(C)S(=O)(=O)N1CCc2nc(C#Cc3ccccc3)sc2C1
59,23,11,> 10000,O=C1c2sc(C#Cc3ccccc3)nc2CN1C1CC1
-1,> 10000,89,790,O=C(C1CCCO1)N1CCc2nc(C#Cc3ccccc3)sc2C1 (configuration not stated)
3,> 10000,100,72,O=C(N1CCC(F)(F)CC1)N1CCc2nc(C#Cc3ccccc3)sc2C1
8,> 10000,280,18,O=C([C@H]1CC2CCC1C2)N1CCc2nc(C#Cc3ccccc3)sc2C1 (some centres not stated)
20,> 10000,260,100,CC1CCCC(C(=O)N2CCc3nc(C#Cc4ccccc4)sc3C2)C1 (configuration not stated)
71,5.7,-6,> 10000,CN(C)S(=O)(=O)N1CCc2nc(C#Cc3ccccc3)sc2C1
87,34,-12,> 10000,O=S(=O)(C1CC1)N1CCc2nc(C#Cc3ccccc3)sc2C1
26,> 10000,170,8.7,O=C(c1cccc(Cl)c1)N1CCc2nc(C#Cc3ccccc3)sc2C1
12,> 10000,170,11,O=C(c1cccc(C(F)(F)F)c1)N1CCc2nc(C#Cc3ccccc3)sc2C1
10,> 10000,190,70,O=C(C1CCC(F)(F)CC1)N1CCc2nc(C#Cc3ccccc3)sc2C1
81,370,3,> 10000,O=C(C1CCC1)N1CCc2nc(C#Cc3ccccc3)sc2C1
–,> 10000,120,51,O=C1NCCc2nc(C#Cc3cccnc3)sc21

inhibition [1] [%],IC50 [2] [nM],Emax [3] [%],EC50 [4] [nM],Compound
–,> 10000,89,250,O=S(=O)(N1CCCCC1)N1Cc2nc(C#Cc3ccccc3)sc2C1
81,480,-17,> 10000,O=S(=O)(C1CCCCC1)N1CCc2nc(C#Cc3ccccc3)sc2C1
-0.2,> 10000,43,640,COC1CC(C(=O)N2CCc3nc(C#Cc4ccccc4)sc3C2)C1 (configuration not stated)
–,> 10000,110,150,O=S(=O)(C1CCCCC1)N1Cc2nc(C#Cc3ccccc3)sc2C1
–,> 10000,150,2.5,O=C1c2sc(C#Cc3ccccc3)nc2CN1C1CCCC1
74,140,-35,> 10000,CC(C)S(=O)(=O)N1Cc2nc(C#Cc3ccccc3)sc2C1
–,> 10000,170,99,Cc1cccc(C(=O)N2CCc3nc(C#Cc4ccccc4)sc3C2)c1
–,> 10000,44,> 10000,COc1ccccc1C#Cc1nc2c(s1)C(=O)NCC2
15,> 10000,100,74,O=C(N1CCC(F)CC1)N1CCc2nc(C#Cc3ccccc3)sc2C1
–,> 10000,70,1200,CN1CCC(C(=O)N2CCc3nc(C#Cc4ccccc4)sc3C2)CC1
–,> 10000,243,112,O=C1NCCc2nc(C#Cc3ccccc3)sc21
45,> 10000,96,130,O=C(C1CCOC1)N1CCc2nc(C#Cc3ccccc3)sc2C1 (configuration not stated)
–,> 10000,320,1500,O=C1NCCc2nc(C#Cc3ccccc3F)sc21
1,> 10000,19,> 10000,C(#Cc1nc2c(s1)CN(C1CCCCC1)CC2)c1ccccc1
26,> 10000,170,53,O=C(N1CCc2nc(C#Cc3ccccc3)sc2C1)N1CCC(F)(F)C1
6.3,> 10000,42,9.4,CC1CC1C(=O)N1CCc2nc(C#Cc3ccccc3)sc2C1 (configuration not stated)
91,200,-40,> 10000,Fc1cccc(C#Cc2nc3c(s2)CN(C2CCC2)CC3)c1
–,> 10000,310,290,O=C1NCCc2nc(C#Cc3cccc(F)c3)sc21
–,> 10000,71,1600,Cc1cc(C(=O)N2CCc3nc(C#Cc4ccccc4)sc3C2)no1
–,> 10000,120,75,O=C(N1CCCCC1)N1CCc2nc(C#Cc3ccccc3)sc2C1
–,> 10000,160,30,O=C(c1cccc(F)c1)N1CCc2nc(C#Cc3ccccc3)sc2C1
–,> 10000,310,5200,O=C1NCCc2nc(C#Cc3ccc(F)cc3)sc21
–,> 10000,120,290,O=C(C1CCOCC1)N1CCc2nc(C#Cc3ccccc3)sc2C1
–,> 10000,120,2500,O=C1NCCc2nc(C#Cc3cccc(Cl)c3)sc21
